Measured values reported in publication PMC11870037 (Molecules, 2024).

How the values were obtained:
SERT = target: T1, SERT (Rattus norvegicus, UniProt P31652); assay: biochemical; type: binding
T1 construct: [3H]-paroxetine, rat cerebral cortex; from tissue; host or cells: rat cerebral cortex (membranes / crude synaptosomes)

hERG potassium channel = target: T2, hERG potassium channel (Homo sapiens, UniProt Q12809); assay: hERG whole-cell patch clamp in HEK 293 cells; type: cell-based
T2 construct: expressed in transfected cells; host or cells: HEK 293

recombinant hH3R = recombinant hH3R (Homo sapiens, UniProt Q9Y5N1); assay: H3 receptor intrinsic activity assay ([35S]GTPγS binding); type: biochemical
[1] = Acute toxicity, up-and-down procedure; conditions: female, rat, in vivo; females, F344 rats, oral
Method: The hERG potassium channel blocking potential was evaluated using the whole-cell patch clamp method with hERG channels expressed in HEK 293 cells as the biological material. The Axopatch 200B amplifier and Digidata 1440A converter from Molecular Devices were integral to the setup. Electrodes crafted from borosilicate glass with filament by Sutter Instrument Company were used for recordings.
Command pulse protocols for voltage clamping and data acquisition were managed by pCLAMP […]
The bath solution contained 137 mM NaCl, 5.4 mM KCl, 10 mM glucose, 10 mM HEPES, and 2 mM CaCl2, with pH adjusted to 7.5 by NaOH. The pipet solution was composed of 140 mM KCl, 1 mM MgCl2, 5 mM EGTA, 10 mM HEPES, and 5 mM Na2ATP, with pH adjusted to 7.2 using KOH. The compound 11b was dissolved in a 50% (w/v) DMSO solution at an initial concentration of 1 mM and diluted to the test concentration with the bath solution. […]
number of surviving animals was recorded after 24 h of drug administration, and the percent mortality in each group was calculated. The LD50 values were calculated by using the soft AOT425statpgm […]
group containing 16 mice. […] The duration of immobility during the last 4 minutes of a total time of 6 minutes was recorded, and animals were judged to be immobile when they floated motionless, making only necessary movements to keep their heads above the water. […]

mice [2] = assay: Locomotor activity test; type: in vivo, mouse; conditions: oral 5, 10, 20, 40, and 80 mg/kg, 15 min period
Dopamine D1 receptor = Dopamine D1 receptor (Rattus norvegicus, UniProt P18901); assay: Dopamine D1 receptor binding ([3H]-SCH23390); conditions: rat striatum
[3] = target: T3, Serotonin 5-HT2A receptor (Rattus norvegicus, UniProt P14842); assay: Serotonin 5-HT2A receptor binding ([3H]ketanserin); conditions: rat brain cortex
T3 construct: The cerebral cortex of a rat was finely homogenized using an ULTRA TURAX; from tissue; host or cells: rat cerebral cortex membranes

Histamine H4 receptor = target: T4, Histamine H4 receptor (Homo sapiens, UniProt Q9H3N8); assay: Histamine H4 receptor binding ([3H]Na-Methylhistamine, Sf9 membranes); conditions: Sf9 cells and membrane
T4 construct: expressed in transfected cells; host or cells: Sf9 membranes

[4] = target: T5, M3 muscarinic cholinergic receptor (Homo sapiens, UniProt P20309); assay: Muscarinic M3 receptor binding (lymphocyte suspension); conditions: lymphocyte suspension and sections
T5 construct: blood lymphocytes were used at a concentration of 1 × 10⁶ cells; endogenous in cells; host or cells: peripheral blood lymphocytes
Method: (§1) Antagonist potency was determined according to literature, by measuring inhibition of RAMH-induced [35S]GTPγS binding in recombinant hH3R membranes as previously. The […]
(§2) Inverse agonist potency was conducted by measuring inhibition of basal [35S]GTPγS binding in recombinant hH3 Rmembranes. Test compound or vehicle was added to the wells, followed by [35S]GTPγS to a final concentration of 0.2 nM. Nonspecific binding was determined in the presence of 10 μM unlabeled GTPγS. The control agonist signal was determined in wells containing vehicle in place of the test compound, and the basal signal was determined in wells containing vehicle in place of both diluted compound and the RAMH […]
(§3) 3. Selectivity of Compound 11b for Additional Receptors […]
(§4) transporter, 3[H]-WIN35,428, rat striatum; (2) Dopamine D1 receptor, 3[H]-SCH23390, rat striatum; (3) Dopamine D2 receptor, [3H]spiperone, rat striatum; (4) Dopamine D3 receptor, [3H] 7-OH-DPAT, rat olfactory tubercle; (5) Serotonin 5-HT2A receptor, [3H]Ketanserin, rat brain cortex;
(§5) (6) Serotonin 5-HT2C receptor, [3H]mesulergine, rat brain cortex; (7) Adrenergic α2 receptor, [3H]- rauwolscine, rat cerebral cortex; (8) Histamine H2 receptor, [3H]tiotidine, Sf9 cells and […]

[5] = target: T6, M4 muscarinic cholinergic receptor (Homo sapiens, UniProt P08173); assay: Muscarinic M4 receptor binding (lymphocyte suspension); conditions: lymphocyte suspension and sections
T6 construct: blood lymphocytes were used at a concentration of 1 × 10⁶ cells; endogenous in cells; host or cells: peripheral blood lymphocytes

[6] = target: T7, M5 muscarinic cholinergic receptor (Homo sapiens, UniProt P08912); assay: Muscarinic M5 receptor binding (lymphocyte suspension); conditions: lymphocyte suspension and sections
T7 construct: blood lymphocytes were used at a concentration of 1 × 10⁶ cells; endogenous in cells; host or cells: peripheral blood lymphocytes
Method: as §1, §2, §3, §4, §5

σ1 receptor = target: T8, σ1 receptor (Cavia porcellus, UniProt Q60492); assay: σ1 receptor binding ([3H]-(+)-pentazocine); conditions: guinea pig brain membrane
T8 construct: from tissue; host or cells: guinea pig brain membranes
Method: as §1, §2, §3, §4, §5

σ2 receptor = target: T9, σ2 receptor (Cavia porcellus, UniProt H0V073); assay: σ2 receptor binding ([3H]-DTG); conditions: guinea pig brain membrane
T9 construct: from tissue; host or cells: guinea pig brain membranes

mice [7] = conditions: oral, immobility duration
NET = NET (Rattus norvegicus, UniProt Q63380); assay: biochemical; conditions: Receptor Affinity Ki ± SEM NET, rat hippocampal membrane, [3H]nisoxetine; means ± SEM of three experiments
NET, sequence (Q63380 1-617): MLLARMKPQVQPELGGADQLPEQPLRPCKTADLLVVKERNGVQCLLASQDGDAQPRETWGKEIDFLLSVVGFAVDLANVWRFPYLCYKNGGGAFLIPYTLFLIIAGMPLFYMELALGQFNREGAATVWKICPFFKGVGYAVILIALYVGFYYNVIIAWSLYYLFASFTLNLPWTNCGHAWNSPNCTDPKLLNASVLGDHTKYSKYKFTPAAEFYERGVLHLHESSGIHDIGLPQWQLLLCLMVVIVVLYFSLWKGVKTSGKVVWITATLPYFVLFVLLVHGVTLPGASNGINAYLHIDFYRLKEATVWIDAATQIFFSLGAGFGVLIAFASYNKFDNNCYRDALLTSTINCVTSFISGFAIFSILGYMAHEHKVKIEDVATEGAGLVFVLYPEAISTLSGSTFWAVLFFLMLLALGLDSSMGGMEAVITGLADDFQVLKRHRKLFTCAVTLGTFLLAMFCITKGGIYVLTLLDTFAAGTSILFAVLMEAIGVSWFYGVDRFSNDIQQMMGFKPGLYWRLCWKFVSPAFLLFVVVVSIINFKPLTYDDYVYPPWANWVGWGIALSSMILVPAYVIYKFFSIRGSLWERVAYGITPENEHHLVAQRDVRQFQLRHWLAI

T1 sequence (P31652 whole entry): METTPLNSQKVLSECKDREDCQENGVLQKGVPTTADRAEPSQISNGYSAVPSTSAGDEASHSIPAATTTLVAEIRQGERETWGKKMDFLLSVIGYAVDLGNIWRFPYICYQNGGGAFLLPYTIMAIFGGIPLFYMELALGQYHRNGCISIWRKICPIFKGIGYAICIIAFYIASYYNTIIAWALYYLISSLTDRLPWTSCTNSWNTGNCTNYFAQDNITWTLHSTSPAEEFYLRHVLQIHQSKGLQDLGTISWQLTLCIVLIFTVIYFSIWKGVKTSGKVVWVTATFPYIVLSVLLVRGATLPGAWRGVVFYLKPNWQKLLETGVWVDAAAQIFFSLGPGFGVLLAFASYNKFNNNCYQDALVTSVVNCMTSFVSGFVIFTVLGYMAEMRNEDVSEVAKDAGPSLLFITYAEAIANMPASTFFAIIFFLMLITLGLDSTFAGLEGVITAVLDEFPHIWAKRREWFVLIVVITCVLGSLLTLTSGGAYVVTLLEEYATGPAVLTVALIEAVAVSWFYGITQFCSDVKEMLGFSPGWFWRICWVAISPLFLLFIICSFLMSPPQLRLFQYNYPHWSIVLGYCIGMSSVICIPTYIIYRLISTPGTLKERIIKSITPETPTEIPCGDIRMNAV
recombinant hH3R, sequence (Q9Y5N1 whole entry): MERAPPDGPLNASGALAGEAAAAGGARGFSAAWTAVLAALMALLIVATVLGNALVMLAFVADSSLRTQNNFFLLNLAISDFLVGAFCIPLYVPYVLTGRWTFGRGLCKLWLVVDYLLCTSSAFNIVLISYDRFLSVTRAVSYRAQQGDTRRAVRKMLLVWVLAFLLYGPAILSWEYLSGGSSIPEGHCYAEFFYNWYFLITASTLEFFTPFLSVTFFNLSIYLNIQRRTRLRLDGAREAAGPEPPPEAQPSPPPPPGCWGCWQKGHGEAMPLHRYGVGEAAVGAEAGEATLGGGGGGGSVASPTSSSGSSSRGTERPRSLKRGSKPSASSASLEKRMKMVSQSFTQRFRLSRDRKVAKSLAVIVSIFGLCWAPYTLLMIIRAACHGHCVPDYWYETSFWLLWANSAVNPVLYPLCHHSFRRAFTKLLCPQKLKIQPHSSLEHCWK
T2 sequence (Q12809 whole entry): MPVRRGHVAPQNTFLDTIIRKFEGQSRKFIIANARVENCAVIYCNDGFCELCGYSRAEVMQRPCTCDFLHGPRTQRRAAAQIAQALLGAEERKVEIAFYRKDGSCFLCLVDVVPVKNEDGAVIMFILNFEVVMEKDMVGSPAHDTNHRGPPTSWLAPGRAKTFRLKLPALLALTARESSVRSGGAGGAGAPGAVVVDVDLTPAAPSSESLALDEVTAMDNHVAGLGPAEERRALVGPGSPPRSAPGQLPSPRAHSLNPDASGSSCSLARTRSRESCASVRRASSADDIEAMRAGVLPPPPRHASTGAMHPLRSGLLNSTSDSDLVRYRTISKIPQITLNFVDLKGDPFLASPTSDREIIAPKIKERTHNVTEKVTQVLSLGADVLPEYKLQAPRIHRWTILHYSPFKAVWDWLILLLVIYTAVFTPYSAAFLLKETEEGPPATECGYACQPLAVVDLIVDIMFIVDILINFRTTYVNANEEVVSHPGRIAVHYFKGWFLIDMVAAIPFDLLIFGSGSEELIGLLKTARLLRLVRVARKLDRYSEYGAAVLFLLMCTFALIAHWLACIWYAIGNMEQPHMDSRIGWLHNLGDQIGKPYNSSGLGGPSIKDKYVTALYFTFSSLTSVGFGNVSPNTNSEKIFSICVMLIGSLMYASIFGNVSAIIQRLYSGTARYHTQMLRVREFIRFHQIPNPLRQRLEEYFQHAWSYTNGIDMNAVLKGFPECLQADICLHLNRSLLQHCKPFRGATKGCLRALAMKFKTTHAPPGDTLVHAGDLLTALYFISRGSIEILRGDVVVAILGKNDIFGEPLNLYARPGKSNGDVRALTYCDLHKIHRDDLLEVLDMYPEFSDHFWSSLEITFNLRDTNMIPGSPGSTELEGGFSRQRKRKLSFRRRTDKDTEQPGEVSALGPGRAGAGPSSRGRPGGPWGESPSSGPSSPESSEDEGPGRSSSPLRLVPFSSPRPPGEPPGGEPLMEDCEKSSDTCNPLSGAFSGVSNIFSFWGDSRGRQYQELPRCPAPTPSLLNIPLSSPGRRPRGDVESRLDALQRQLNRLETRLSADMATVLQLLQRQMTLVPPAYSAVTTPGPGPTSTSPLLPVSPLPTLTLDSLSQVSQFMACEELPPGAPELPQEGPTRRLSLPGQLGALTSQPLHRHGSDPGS
T3 sequence (P14842 whole entry): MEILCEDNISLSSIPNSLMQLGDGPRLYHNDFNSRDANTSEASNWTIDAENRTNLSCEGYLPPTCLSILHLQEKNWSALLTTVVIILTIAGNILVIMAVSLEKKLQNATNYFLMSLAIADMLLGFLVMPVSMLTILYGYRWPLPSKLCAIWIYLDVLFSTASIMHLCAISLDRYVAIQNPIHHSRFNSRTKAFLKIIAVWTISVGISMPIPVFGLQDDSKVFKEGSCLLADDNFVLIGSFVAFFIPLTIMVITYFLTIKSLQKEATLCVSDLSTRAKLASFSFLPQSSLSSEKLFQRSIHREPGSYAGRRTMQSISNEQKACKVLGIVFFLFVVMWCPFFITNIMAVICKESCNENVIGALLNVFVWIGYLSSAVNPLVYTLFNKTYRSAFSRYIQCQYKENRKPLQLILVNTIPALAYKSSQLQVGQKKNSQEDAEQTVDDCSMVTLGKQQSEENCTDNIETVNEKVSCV
T4 sequence (Q9H3N8 whole entry, species assumed): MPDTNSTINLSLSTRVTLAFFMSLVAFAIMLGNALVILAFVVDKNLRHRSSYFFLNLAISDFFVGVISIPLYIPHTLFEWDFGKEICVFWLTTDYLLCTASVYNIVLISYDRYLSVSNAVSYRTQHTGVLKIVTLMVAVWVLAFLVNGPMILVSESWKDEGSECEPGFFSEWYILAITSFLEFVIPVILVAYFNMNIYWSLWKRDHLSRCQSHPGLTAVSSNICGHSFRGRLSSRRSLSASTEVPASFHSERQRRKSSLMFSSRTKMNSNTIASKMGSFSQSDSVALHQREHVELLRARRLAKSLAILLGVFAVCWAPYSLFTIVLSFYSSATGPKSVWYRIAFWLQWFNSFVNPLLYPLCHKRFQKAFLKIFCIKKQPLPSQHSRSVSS
T7 sequence (P08912 whole entry): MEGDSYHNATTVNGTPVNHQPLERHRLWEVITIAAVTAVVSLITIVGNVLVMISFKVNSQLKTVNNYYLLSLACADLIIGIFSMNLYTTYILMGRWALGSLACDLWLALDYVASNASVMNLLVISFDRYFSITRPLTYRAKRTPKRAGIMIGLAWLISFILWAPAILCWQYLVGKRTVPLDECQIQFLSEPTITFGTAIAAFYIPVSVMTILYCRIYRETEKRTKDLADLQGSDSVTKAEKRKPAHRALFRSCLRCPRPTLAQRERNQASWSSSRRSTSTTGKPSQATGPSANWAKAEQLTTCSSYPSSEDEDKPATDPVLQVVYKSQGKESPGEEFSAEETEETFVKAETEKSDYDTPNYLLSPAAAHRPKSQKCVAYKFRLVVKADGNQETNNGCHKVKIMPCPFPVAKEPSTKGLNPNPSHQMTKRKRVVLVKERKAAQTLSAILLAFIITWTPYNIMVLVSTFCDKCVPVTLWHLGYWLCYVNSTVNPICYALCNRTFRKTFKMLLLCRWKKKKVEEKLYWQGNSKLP
T5 sequence (P20309 whole entry): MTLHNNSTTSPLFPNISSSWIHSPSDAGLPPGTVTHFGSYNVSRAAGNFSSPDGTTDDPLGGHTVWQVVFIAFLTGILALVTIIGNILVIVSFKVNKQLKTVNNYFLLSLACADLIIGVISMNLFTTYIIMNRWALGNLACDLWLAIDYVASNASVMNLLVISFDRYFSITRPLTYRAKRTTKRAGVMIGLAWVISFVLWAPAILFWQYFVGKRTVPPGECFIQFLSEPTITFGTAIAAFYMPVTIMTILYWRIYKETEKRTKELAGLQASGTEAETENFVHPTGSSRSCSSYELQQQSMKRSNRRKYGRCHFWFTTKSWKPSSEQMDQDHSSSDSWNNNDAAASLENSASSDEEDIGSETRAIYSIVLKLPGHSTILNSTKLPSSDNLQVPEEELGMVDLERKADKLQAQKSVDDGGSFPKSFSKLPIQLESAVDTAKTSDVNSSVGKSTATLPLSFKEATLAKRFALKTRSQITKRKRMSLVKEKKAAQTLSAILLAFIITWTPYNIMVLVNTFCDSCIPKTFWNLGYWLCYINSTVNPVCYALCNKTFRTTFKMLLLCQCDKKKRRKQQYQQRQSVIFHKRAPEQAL
T9 sequence (H0V073 1-176): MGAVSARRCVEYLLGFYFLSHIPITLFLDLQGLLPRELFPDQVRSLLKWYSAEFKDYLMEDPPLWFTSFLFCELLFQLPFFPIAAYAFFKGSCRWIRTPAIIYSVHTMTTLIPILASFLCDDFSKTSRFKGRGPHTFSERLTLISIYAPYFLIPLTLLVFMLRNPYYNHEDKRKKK

CN(C)CCC(Oc1cccc2c1OCO2)c1ccc(OCCCN2CCCCC2)cc1.O=C(O)C(=O)O (centres unmarked) [Compound 11b, 3-(benzo[d][1,3]dioxol-4-yloxy)-N,N-dimethyl-3-(4-(3-(piperidin-1-yl)propoxy)phenyl)propan-1-amine oxalate]
Ki (SERT; rat cerebral cortex, [3H]-paroxetine, means ± SEM of three experiments, read-out: Receptor Affinity Ki ± SEM SERT): 7.8 ± 0.9 nM
potency ratio among SERT, NET, and H3 (SERT; ratio of binding Ki values for SERT, NET, H3): < 10 fold
IC50 (hERG potassium channel): 1000 ± 112 nM
inhibition at 10 µM (recombinant hH3R; 10 μM, n = 3): > 90%
IC50 (recombinant hH3R; antagonist assay, RAMH-induced [35S]GTPγS binding): 0.72 nM
LD50 at 24 h [1]: 512 mg/kg
total travel distance (locomotor activity) (mice [2]): did not significantly alter the total travel distance
Ki (Dopamine D1 receptor): > 1000 nM
Ki [3]: 320 nM
Ki (Histamine H4 receptor): > 1000 nM
Ki [4]: > 1000 nM
Ki [5]: > 1000 nM
Ki [6]: > 1000 nM
Ki (σ1 receptor): > 1000 nM
Ki (σ2 receptor): > 1000 nM
minimal effective dose (MED) in FST (mice [7]): 6 mg/kg
Ki (NET): 10.5 ± 1.2 nM
